In ChEMBL document CHEMBL6120941, “Discovery of SIRT1-Activating Hydrogen Sulfide Donating Derivatives for Efficient Resistant of Myocardial Ischemic Injury” (J Med Chem, 2024) one finds viability and Activity data, which are given here for nine compounds.

Assay [1] relates to H9c2. Briefly: Cardioprotective activity against CoCl2-induced cellular hypoxia injury in rat H9c2 cells assessed as cell viability at 1.25 uM incubated for 24 hrs by CCK-8 assay (reference value: 51.80 +/- 2.58 %). The following applies: read-out: Activity. The class given is functional. (Tetrazolium dyes change colour on reduction, which living cells bring about.)
The target in assay [2] is T1, NAD-dependent protein deacetylase sirtuin-1 (Homo sapiens) (UniProt Q96EB6).
T1 sequence (whole entry): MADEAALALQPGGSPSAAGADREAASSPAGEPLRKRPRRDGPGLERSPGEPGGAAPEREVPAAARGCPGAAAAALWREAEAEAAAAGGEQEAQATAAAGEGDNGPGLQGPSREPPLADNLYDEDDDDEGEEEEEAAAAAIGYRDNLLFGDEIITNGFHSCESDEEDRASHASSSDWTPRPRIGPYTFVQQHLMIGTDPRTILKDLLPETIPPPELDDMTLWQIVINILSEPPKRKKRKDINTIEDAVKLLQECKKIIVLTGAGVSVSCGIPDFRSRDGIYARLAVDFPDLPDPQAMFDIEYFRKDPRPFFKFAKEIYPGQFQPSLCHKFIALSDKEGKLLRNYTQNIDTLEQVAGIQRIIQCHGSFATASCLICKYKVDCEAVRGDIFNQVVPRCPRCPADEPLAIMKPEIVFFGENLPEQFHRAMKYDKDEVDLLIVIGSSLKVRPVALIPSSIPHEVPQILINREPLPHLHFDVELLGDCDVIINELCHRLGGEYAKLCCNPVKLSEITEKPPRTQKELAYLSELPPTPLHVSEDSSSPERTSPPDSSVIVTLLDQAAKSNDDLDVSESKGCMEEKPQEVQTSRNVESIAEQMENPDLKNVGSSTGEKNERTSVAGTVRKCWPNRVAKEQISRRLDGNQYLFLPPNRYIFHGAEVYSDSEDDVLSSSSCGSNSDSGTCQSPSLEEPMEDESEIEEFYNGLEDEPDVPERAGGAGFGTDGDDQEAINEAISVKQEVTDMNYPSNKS
Briefly: Activation of SIRT1 (unknown origin) using RHKK-ac-AMC as substrate incubated for 2 hrs by FDL assay relative to control. The following applies: filed as activator.

The test system of assay [3] is H9c2. Briefly: Cardioprotective activity against CoCl2-induced cellular hypoxia injury in rat H9c2 cells assessed as increase in cell viability at 30 uM incubated for 24 hrs by CCK-8 assay. The class given is functional, cell-based.
Assay [4] concerns H9c2. Briefly: Cardioprotective activity against CoCl2-induced cellular hypoxia injury in rat H9c2 cells assessed as cell viability at 5 uM incubated for 24 hrs by CCK-8 assay (reference value: 51.80 +/- 2.58 %). The class given is functional. The note with it: read-out: Activity.
Assay [5] deals with H9c2. Briefly: Cardioprotective activity against CoCl2-induced cellular hypoxia injury in rat H9c2 cells assessed as cell viability at 0.625 uM incubated for 24 hrs by CCK-8 assay (reference value: 51.80 +/- 2.58 %). The class given is functional. The note with it: read-out: Activity.
For assay [6], the system named is H9c2. Briefly: Cardioprotective activity against CoCl2-induced cellular hypoxia injury in rat H9c2 cells assessed as cell viability at 10 uM incubated for 24 hrs by CCK-8 assay (reference value: 51.80 +/- 2.58 %). The note with it: read-out: Activity. The class given is functional.
Assay [7] has as its system H9c2. Briefly: Cardioprotective activity against CoCl2-induced cellular hypoxia injury in rat H9c2 cells assessed as cell viability at 2.5 uM incubated for 24 hrs by CCK-8 assay (reference value: 51.80 +/- 2.58 %). The format is functional. The note with it: read-out: Activity.
A short description of assay [8]: Induction of H2S release in PBS at pH 7.4 at 100 uM measured upto 60 mins by methylene blue method. The format is functional.
Assay [9] is described as follows: Induction of H2S release in PBS at pH 7.4 measured upto 60 mins by methylene blue method. The format is functional.
Assay [10] concerns H9c2. Briefly: Induction of H2S release in rat H9c2 cells incubated for 24 hrs by AzMC probe based analysis. The format is functional, cell-based. The following applies: dose 1.25-10 µM.

The source made the active and inactive calls. The calls are words filed in the database; no cut-off is given here.

Regarding `CC(C)(O)[C@@H]1CC[C@@](C)([C@H]2CC[C@]3(C)[C@@H]2[C@H](O)C[C@@H]2[C@@]4(C)CC[C@H](O)C(C)(C)[C@@H]4CC[C@]23C)O1`, in the assay with H9c2 [1], the viability at 1.25 µM amounted to 72.6%. In assay [2], this compound registered an Activity of 123%. The result with H9c2 [3] was inactive. For the same compound, in the assay on H9c2 [4], the viability at 5 µM was 79.1%. The viability at 0.625 µM in the assay with H9c2 [5] turned out to be 70.6%. In addition, in the assay with H9c2 [6], the viability at 10 µM worked out at 81.2%. In the assay on H9c2 [7], the viability at 2.5 µM is 74.8%.

For the compound `CC(C)(O)[C@@H]1CC[C@@](C)([C@H]2CC[C@]3(C)[C@@H]2[C@H](O)C[C@@H]2[C@@]4(C)CC[C@H](OC(=O)CCC(=O)Oc5ccc(-c6nc(=O)ss6)cc5)C(C)(C)[C@@H]4CC[C@]23C)O1`, the viability at 1.25 µM in the assay with H9c2 [1] amounted to 81.6%. In [8], the result was Active. Moreover, the result with H9c2 [3] was inactive. The viability at 5 µM in the assay with H9c2 [4] turned out to be 91%. Further, the viability at 0.625 µM in the assay on H9c2 [5] worked out at 73.5%. Besides, the figures for the Activity (in [9]; in the assay on H9c2 [10]) were 10 µM and “Dose-dependent-effect”, respectively. The viability at 10 µM with H9c2 [6] came to 92.2%. The viability at 2.5 µM in the assay with H9c2 [7] was 87.7%.

With `CC(C)(O)[C@H]1CC[C@@](C)([C@H]2CC[C@]3(C)[C@@H]2[C@H](O)C[C@@H]2[C@@]4(C)CC[C@H](OC(=O)CCC(=O)Oc5ccc(-c6nc(=O)ss6)cc5)C(C)(C)[C@@H]4CC[C@]23C)O1`, the viability at 1.25 µM in the assay on H9c2 [1] turned out to be 82%. Further, in assay [8], the outcome was Active. The result in the assay with H9c2 [3] was inactive. In addition, in the assay with H9c2 [4], the viability at 5 µM came to 86.8%. Moreover, the viability at 0.625 µM in the assay with H9c2 [5] worked out at 76.4%. The figures for the Activity (in [9]; in the assay on H9c2 [10]) were 7 µM and “Dose-dependent-effect”, respectively. The viability at 10 µM in the assay with H9c2 [6] was 91.4%. Further, the viability at 2.5 µM with H9c2 [7] came to 84.7%.

As for `CC(C)(O)[C@H]1CC[C@@](C)([C@H]2CC[C@]3(C)[C@@H]2[C@H](O)C[C@@H]2[C@@]4(C)CC[C@H](OC(=O)c5ccc(N=C=S)cc5)C(C)(C)[C@@H]4CC[C@]23C)O1`, in the assay with H9c2 [1], the viability at 1.25 µM was 61.6%. The result with H9c2 [3] was inactive. The viability at 5 µM in the assay on H9c2 [4] amounted to 68.3%. Besides, the viability at 0.625 µM with H9c2 [5] stood at 59.9%. For the same compound, the viability at 10 µM with H9c2 [6] is 72.9%. Further, the viability at 2.5 µM with H9c2 [7] is 67.3%.

On to `CC(C)=CCC[C@](C)(O)[C@H]1CC[C@]2(C)[C@@H]1[C@H](O)C[C@@H]1[C@@]3(C)CC[C@H](O)C(C)(C)[C@@H]3CC[C@]12C`, for which the viability at 1.25 µM with H9c2 [1] is 63%. Also, the outcome with H9c2 [3] was inactive. In the assay with H9c2 [4], the viability at 5 µM is 67.5%. The viability at 0.625 µM in the assay on H9c2 [5] amounted to 52.5%. Moreover, the viability at 10 µM in the assay with H9c2 [6] came to 68.8%. Also, in the assay with H9c2 [7], the viability at 2.5 µM was 67.5%.

As to `CC(C)(O)[C@@H]1CC[C@@](C)([C@H]2CC[C@]3(C)[C@@H]2[C@H](O)C[C@@H]2[C@@]4(C)CC[C@H](OC(=O)CCC(=O)Oc5ccc(-c6cc(=S)ss6)cc5)C(C)(C)[C@@H]4CC[C@]23C)O1`, in the assay with H9c2 [1], the viability at 1.25 µM is 71.4%. Besides, the outcome in the assay with H9c2 [3] was inactive. The viability at 5 µM in the assay on H9c2 [4] is 80%. Besides, the viability at 0.625 µM in the assay with H9c2 [5] worked out at 68.4%. Besides, the viability at 10 µM in the assay with H9c2 [6] was found to be 82.2%. Also, the viability at 2.5 µM in the assay on H9c2 [7] amounted to 79.6%.

As to `CC(C)(O)[C@@H]1CC[C@@](C)([C@H]2CC[C@]3(C)[C@@H]2[C@H](O)C[C@@H]2[C@@]4(C)CC[C@H](OC(=O)CCC(=O)Oc5ccc(-c6nc(=O)ss6)cc5)C(C)(C)[C@@H]4[C@@H](O)C[C@]23C)O1`, the viability at 1.25 µM in the assay with H9c2 [1] worked out at 77.4%. Besides, the outcome in [8] was Active. In addition, in the assay with H9c2 [3], the outcome was inactive. Further, the viability at 5 µM in the assay on H9c2 [4] turned out to be 89.1%. In addition, the viability at 0.625 µM in the assay with H9c2 [5] stood at 70.1%. Further, the Activity was 10.5 µM in [9] and “Dose-dependent-effect” in the assay on H9c2 [10]. Further, in the assay with H9c2 [6], the viability at 10 µM came to 94.2%. For the same compound, in the assay on H9c2 [7], the viability at 2.5 µM stood at 83.7%.

Turning to `C=CCSSCCC(=O)O[C@H]1CC[C@]2(C)[C@H]3C[C@@H](O)[C@@H]4[C@@H]([C@]5(C)CC[C@@H](C(C)(C)O)O5)CC[C@@]4(C)[C@]3(C)C[C@H](O)[C@H]2C1(C)C`, the viability at 1.25 µM in the assay on H9c2 [1] came to 74.2%. In assay [8], the outcome was Active. In addition, the result with H9c2 [3] was inactive. Also, the viability at 5 µM in the assay on H9c2 [4] is 89.1%. In addition, the viability at 0.625 µM in the assay on H9c2 [5] was found to be 74.7%. The Activity is 17.4 µM in assay [9] and “Dose-dependent-effect” in the assay with H9c2 [10]. Also, in the assay with H9c2 [6], the viability at 10 µM is 95.3%. Moreover, the viability at 2.5 µM with H9c2 [7] came to 79.1%.

Consider `C=CCSSCCC(=O)O[C@H]1CC[C@]2(C)[C@H]3C[C@@H](O)[C@@H]4[C@@H]([C@@](C)(O)CCC=C(C)C)CC[C@@]4(C)[C@]3(C)C[C@H](O)[C@H]2C1(C)C`, for which the viability at 1.25 µM in the assay with H9c2 [1] is 58.4%. The result in the assay on H9c2 [3] was inactive. Further, the viability at 5 µM in the assay with H9c2 [4] was found to be 63.1%. Also, the viability at 0.625 µM in the assay on H9c2 [5] was 49%. Moreover, the viability at 10 µM in the assay on H9c2 [6] is 65.7%. Further, the viability at 2.5 µM in the assay on H9c2 [7] amounted to 64.4%.
